# Reference: patent US9051271B2, “Substituted pyridine derivatives useful in the treatment of cancer” (United Arab Emirates University, priority 2012, dated 2015)
# pIC50: −log10 of the molar value. Like-named read-outs stand apart in the source and are kept apart here.
# What was measured:
# NCI-H460-Luc2 cells = experiment: Cell Titer-Glo Luminescent Cell Viability assay, lung cancer cells; assay type: cell-based, Human; conditions: death of 50% of the cells, half-maximal inhibition at 24 h
# Procedure: (§1) Human breast cancer cells MDA-MB-231 and colorectal cancer cells HT29, were maintained in DMEM medium (Invitrogen, Cergy Pontoise, France). Human lung cancer cells NCI-H460-Luc2 (Caliper Life Sciences, US) (NSCLC) were maintained in RPMI 1640 (Hyclone Thermo Scientific, MA United States). All media were supplemented with antibiotics (penicillin 50.00 U/ml; streptomycin […]) (Invitrogen, Cergy Pontoise, France) and 10.00% fetal bovine serum (FBS, Biowest, Nouaille, France).
# (§2) Cells were seeded in 96-well plates at a density of 5,000 cells/well. After 24.00 hours of seeding, resultant cells' arrays were treated for 24.00-48.00 hours with increasing concentrations of the test compounds (5.00-100.00 μM), in triplicates. Control culture cells were treated with 0.10% DMSO.
# (§3) The effect of the test compounds on cell viability was determined using a Cell Titer-Glo Luminescent Cell Viability assay (Promega Corporation, Madison, USA), based on quantification of ATP, which signals the presence of metabolically active cells. Luminescent signal was measured using GLOMAX Luminometer system. The data were presented as proportional viability (%) by comparing the treated group with the untreated cells, the viability of which is assumed to be 100%.
# (§4) The effects of investigated compounds at concentrations 5.00-100.00 μM on MDA-MB-231, NCI-H460-Luc2 and HT29 cells were investigated after 24.00 and 48.00 hours exposures. […] Inhibition rates ranged between 50.00 and 98.00% were recorded for all compounds at 100.00 μM concentration. The IC50 is the concentration at which half-maximal inhibition occurs at 24 h. Approximate IC50 value of 100.00 μM was obtained after 24.00 hours.
# (§5) Exponentially growing MDA-MB-231, NCI-H460-Luc2 and HT29 cells were treated with vehicle (0.10% DMSO) and the indicated concentrations of investigated compounds. Viable cells were assayed as described in Materials and Methods. Exposure times of 24.00 and 48.00 hours were applied. All experiments were repeated at least three times.
# HT29 cells = experiment: Cell Titer-Glo Luminescent Cell Viability assay, colorectal cancer cells; assay type: cell-based, Human; conditions: death of 50% of the cells, half-maximal inhibition at 24 h, read-out: IC50 HT29 Colon Cancer
# Procedure: as §1, §2, §3, §4, §5
# MDA-MB-231 cells = experiment: Cell Titer-Glo Luminescent Cell Viability assay, breast cancer cells; assay type: cell-based, Human; conditions: half-maximal inhibition at 24 h
# Procedure: as §1
# Cells were seeded in 96-well plates at a density of 5,000 cells/well. […] Control culture cells were treated with 0.10% DMSO.
# as §3
# Inhibition rates ranged between 50.00 and 98.00% were recorded for all compounds at 100.00 μM concentration. The IC50 is the concentration at which half-maximal inhibition occurs at 24 h. Approximate IC50 value of 100.00 μM was obtained after 24.00 hours.
# as §5
Structure (SMILES),melting point,pIC50 (NCI-H460-Luc2 cells),pIC50 (HT29 cells),pIC50 (MDA-MB-231 cells),"pIC50 (MDA-MB-231 cells; Homo sapiens, MDA-MB-231)",pIC50 (NCI-H460-Luc2 cells; Homo sapiens),"pIC50 (HT29 cells; Homo sapiens, HT-29)"
"Cc1[nH]c(=O)c(C#N)c(C)c1N=Nc1ccc([N+](=O)[O-])cc1 [Compound Ig, 3-Cyano-4,6-dimethyl-5-(4′-nitrorthenylazo)-pyridine-2(1H)-one]",–,4.53,4.41,4.14,–,–,–
"Cc1[nH]c(=O)c(C#N)c(C)c1N=Nc1ccccc1F [Ia, 3-Cyano-4,6-dimethyl-5-(2′-fluorophenylazo)-pyridine-2(1H)-one]",257 °C,–,–,–,3.32,–,–
"Cc1[nH]c(=O)c(C#N)c(C)c1N=Nc1cccc(C(F)(F)F)c1 [Ib, 3-Cyano-4,6-dimethyl-5-(3′-trifluoromethylphenylazo)-pyridine-2(1H)-one]",265 °C,–,–,–,3.57,–,–
"Cc1c(N=Nc2cccc(C(F)(F)F)c2)c(-c2ccccc2)[nH]c(=O)c1C#N [Ie, 3-Cyano-4-methyl-6-phenyl-5-(3′-trifluoromethylphenylazo)-pyridine-2(1H)-one]",237 °C,–,–,–,4.04,4.44,4.19
"Cc1c(N=Nc2ccc([N+](=O)[O-])cc2)c(-c2ccccc2)[nH]c(=O)c1C#N [Ih, 3-Cyano-4-methyl-6-phenyl-5-(4′-nitronthenylazo)-pyridine-2(1H)-one]",–,4.51,4.53,3.77,–,–,–

# More lines, main results first:
melting point,Structure (SMILES),pIC50 (NCI-H460-Luc2 cells),pIC50 (HT29 cells),pIC50 (MDA-MB-231 cells),"pIC50 (MDA-MB-231 cells; Homo sapiens, MDA-MB-231)",pIC50 (NCI-H460-Luc2 cells; Homo sapiens),"pIC50 (HT29 cells; Homo sapiens, HT-29)"
272 °C,"Cc1[nH]c(=O)c(C#N)c(C)c1N=Nc1ccc(F)cc1 [Ic, 3-Cyano-4,6-dimethyl-5-(4′-fluorophenylazo)-pyridine-2(1H)-one]",–,–,–,3.67,–,–
225 °C,"Cc1c(N=Nc2ccccc2F)c(-c2ccccc2)[nH]c(=O)c1C#N [Id, 3-Cyano-4-methyl-6-phenyl-5-(2′-fluorophenylazo)-pyridine-2(1H)-one]",–,–,–,–,–,–
252 °C,"Cc1c(N=Nc2ccc(F)cc2)c(-c2ccccc2)[nH]c(=O)c1C#N [If, 3-Cyano-4-methyl-6-phenyl-5-(4′-fluorophenylazo)-pyridine-2(1H)-one]",–,–,–,4.12,4.52,4.03
